In data set [1] the test system is HepG2 cell line. Nature of the data set: Extracytosolic LDH cytotoxicity assay in HepG2 cells. The class given is cell-based, human. To be noted: HepG2, 100 and 10 μg/ml. Here is the method:
(§1) The HepG2 cell line, clone H20, was received from Prof. Mersch-Sundermann, Giessen University, and cultured as described in [2]. The cells were cultured in low glucose (1 g/l) Dulbecco's modified Eagle's medium (DMEM) with L-glutamine and 25 mM Hepes, which was mixed with 15% (v/v) heat-inactivated fetal calf serum (FCS) and gentamycin (30 μg/ml), in a moist atmosphere at 37+/−0.5° C., 5% CO2. The cells were trypsinized, washed with PBS (pH 7.4), gently centrifuged and then a cell suspension in a cell medium was prepared by forcing the sediment through a needle. The medium was changed every three to five days. The compounds Nos. 5 and 8 to be tested were dissolved in a concentration of 1 mg/ml in HepG2 medium, to which the serum-free supplement SerEx was added instead of FCS, and filtered through a 0.2 μm cellulose acetate filter.
The cells were seeded in 96-well microtiter plates (1×10^4 cells/well). After 24 h, the medium was removed and the cells were exposed to the compounds to be tested, in concentrations of 100 and 10 μg/ml, for 48 h. The cell metabolic activity was quantified as 2.5 mg/ml MTT in accordance with. The extracytosolic LDH [4] was quantified with a cytotoxicity assay.

For data set [2], the system named is Human primary keratinocytes (NHK). In words: MTT mitochondrial activity in human keratinocytes. The class given is cell-based. Conditions: 10 μg/ml. On the procedure:
(§2) Human primary keratinocytes (NHK) were isolated from human skin obtained by surgical resection of Caucasian patients. In vitro tests relating to the mitochondrial activity, the BrdU incorporation and for necrotic effects by means of an LDH assay were carried out.
(§3) The investigations were carried out with cells of the 2nd to 6th passage. Both compound No. 5 and compound No. 8 increased in a concentration of 10 μg/ml both the mitochondrial activity and the proliferation (FIG. 3).
(§4) FIG. 3: Influence of compounds No. 5 and No. 8 (10 μg/ml) on the mitochondrial activity (A) and the mitotic proliferation (B) of HaCaT keratinocytes after incubation for 60 hours.
(§5) The measurement plotted in FIG. 3A is the relative mitochondrial dehydrogenase activity (untreated control=100%) and in FIG. 3 b is the relative mitochondrial proliferation rate (untreated control=100%).
(§6) The mitochondrial activity was investigated using the MTT assay, and the proliferation by BrdU-incorporation ELISA. The bars represent the standard errors with n=10. Negative control: untreated cells, positive control: fibroblast growth factor FGF.

Data set [3] has as its system human liver cells (HEPG2). Nature of the data set: MTT cell metabolic (mitochondrial) activity in HepG2 liver cells. Conditions: for mitochondrial activity: HepG2, 10 and 100 μg/ml, incubation for 48 hours, MTT; for energy status: HepG2, shortened incubation time of 24 hours. The class given is cell-based. Here is the method:
as §1
The cells were seeded in 96-well microtiter plates (1×10^4 cells/well). […] The cell metabolic activity was quantified as 2.5 mg/ml MTT in accordance with. The extracytosolic LDH [4] was quantified with a cytotoxicity assay.
FIG. 2: Influence of compounds No. 5 and No. 8 (10 and 100 μg/ml) on the mitochondrial activity of human liver cells (HEPG2) after incubation for 48 hours.
The measurement plotted in FIG. 2 is the relative mitochondrial dehydrogenase activity (untreated control=100%). The bars represent the means of a representative experiment with n=10.

The subject of data set [4] is Helicobacter pylori. In words: Adhesion of FITC-labeled Helicobacter pylori to human gastric mucosa. The class given is cell-based. To be noted: for adhesion score / fluorescence intensity: FITC-labeled H. pylori on human gastric mucosa; for adhesion score: 1 mg/ml; for antiadhesive effect on Helicobacter pylori: bacteria incubated with compound 1 mg/ml, stomach tissue; for fluorescence intensity: untreated bacteria standardized to 100%. On the procedure:
Adhesion tests were carried out in accordance with. This entailed FITC-labeled bacteria being incubated with the compounds to be tested (1 mg/ml). Deparaffinized pieces of stomach tissue were incubated with the bacteria. Microorganisms which adhere to the epithelium were counted under a fluorescence microscope and compared with an untreated control.
The maximum adhesion, as found for example in the untreated control groups (negative control), was assigned a score of +++++, while lower adhesions were assigned scores ++++, +++, ++, + or −, the score found for the positive control (sialyllactose, [7]) being −.
FIG. 4: Fluorescence microscopes (200×) of a representative in situ experiment with FITC-labeled H. pylorion human gastric mucosa: (A) complete adhesion (+++++) of untreated bacteria, fluorescence intensity standardized to 100% (negative control), (B) positive control (−), fluorescence intensity 10% (C) compound No. 5 (++++), fluorescence intensity 78%, (D) compound No. 8 (+) fluorescence intensity 19%.

In data set [5] the test system is Human primary keratinocytes (NHK). In words: BrdU incorporation proliferation in human keratinocytes. The class given is cell-based. To be noted: 10 μg/ml. Here is the method:
as §2, §3, §4, §5, §6
(In general: Uptake of a labelled nucleoside into DNA is a usual measure of proliferation.)

Data set [6] has the same test system. Nature of the data set: LDH assay for necrotic effects in human keratinocytes. The class given is cell-based. Here is the method: as §2, §3

With `O=C(/C=C/c1ccc(O)c(O)c1)N[C@@H](Cc1c[nH]c2ccccc12)C(=O)O` [Compound 5, (+)-N-[3′,4′-dihydroxy-(E)-cinnamoyl]-L-tryptophan], the “necrotic cytotoxicity (LDH)” value in data set [1] is “no necrotic cytotoxicity was detectable”. Further, the mitochondrial activity result in data set [2] is “increased”. Further, in data set [3], the mitochondrial activity entry was “increased” and the energy status entry is given as “no effect”. In data set [4], the adhesion score result is given as “++++”, the “antiadhesive effect on Helicobacter pylori” value (shortened to “antiadhesive effect”) was “no effect” and the fluorescence intensity was determined as 78%. For the same molecule, in data set [5], the proliferation entry is reported as “increased”. Besides, in data set [6], the cytotoxicity entry was “No cytotoxicity was detected”.
Turning to `O=C(O)C[C@H](NC(=O)/C=C/c1ccc(O)c(O)c1)C(=O)O` [Compound 8, (+)-N-[3′,4′-dihydroxy-(E)-cinnamoyl]-L-aspartic acid], the “necrotic cytotoxicity (LDH)” value in data set [1] is given as “no necrotic cytotoxicity was detectable”. Besides, the mitochondrial activity result in data set [2] is recorded as “increased”. Moreover, in data set [3], the mitochondrial activity entry is “increased” and the energy status result was “significantly increased”. Further, in data set [4], the adhesion score entry is given as “+”, the “antiadhesive effect” value was “almost complete suppression of adhesion” and the fluorescence intensity was found to be 19%. In addition, in data set [5], the proliferation result was “increased”. Moreover, the cytotoxicity entry in data set [6] was “No cytotoxicity was detected”.
With `O=C(/C=C/c1ccc(O)c(O)c1)N[C@@H](Cc1ccc(O)c(O)c1)C(=O)O` [Compound 11, (−)-N-[3′,4′-dihydroxy-(E)-cinnamoyl]-3-hydroxy-L-tyrosine], the mitochondrial activity entry in data set [2] and in data set [3] was “none of the effects described” each time. Besides, the “antiadhesive effect” value in data set [4] was “none of the effects described”. Besides, the proliferation entry in data set [5] is given as “none of the effects described”.
Take sialyllactose [reference compound]: in data set [4], the adhesion score entry was “−” and the fluorescence intensity is on record as 10%.

For the origin of these results see patent US20100008976A1, “Medical Use of N-Phenylpropenoyl-Amino Acid Derivatives and Related Compounds” (Westfallsche Wilheims Universitat Munster, priority 2006, published 2010).
